Reference: patent publication US8614215B2, “Quinoxaline inhibitors of phosphoinositide-3-kinases (PI3Ks)” (Merck Serono SA, priority 2007, dated 2013)

Tested on: Human recombinant GST-PI3K
Experiment: PI3K induced-lipid phosphorylation, neomycin-SPA scintillation proximity assay
Format: biochemical
Conditions: Human recombinant GST-PI3K, SPA
Excerpt: The efficacy of compounds of the invention in inhibiting the PI3K induced-lipid phosphorylation may be tested in the following binding assay. The assay combines the scintillation proximity assay technology (SPA, Amersham) with the capacity of neomycin (a polycationic antibiotic) to bind phospholipids with high affinity and specificity. The Scintillation Proximity Assay is based on the properties of weakly emitting isotopes (such as ^3H, ^125I, ^33P). Coating SPA beads with neomycin allows the detection of phosphorylated lipid substrates after incubation with recombinant PI3K and radioactive ATP in the same well, by capturing the radioactive phospholipids to the SPA beads through their specific binding to neomycin.
To a 96 wells MTP containing 10 μL of the test compound of Formula (I) (solubilized in 10% DMSO; […]), the following assay components are added: 1) 10 μL of lipid micelles 2) 20 μL of Kinase buffer ([^33P]γATP162 μM/300 nCi, MgCl2 2.5 mM, DTT 2.5 mM, Na3VO4 25 uM in Hepes 40 mM, pH 7.4) and 3) 10 μL (100 ng) of Human recombinant GST-PI3K (in Hepes 40 mM, pH 7.4, ethylenglycol 4%). After incubation at room temperature for 120 minutes, with gentle agitation, the reaction is stopped by addition of 200 μL of a solution containing 250 μg of neomycin-coated PVT SPA beads, ATP 60 mM and EDTA 6.2 mM in PBS. The assay is further incubated at room temperature for 60 minutes with gentle agitation to allow binding of phospholipids to neomycin-SPA beads. After precipitation of the neomycin-coated PVT SPA beads for 5 minutes at 1500×g, radioactive PtdIns(3)P is quantified by scintillation counting in a Wallac MicroBeta™ plate counter.
The values indicated in Table I below refer to the IC50 (μM) with respect to PI3K, i.e. the amount necessary to achieve 50% inhibition of said target. Said values show a considerable inhibitory potency of quinoxaline compounds with regard to PI3K.

IC50 | Structure (SMILES)
1650 nM | COC(=O)c1ccc(OC)cc1Nc1nc2ccccc2nc1NS(C)(=O)=O [Example 3, methyl 4-methoxy-2-({3-[(methylsulfonyl)amino]quinoxalin-2-yl}amino)benzoate]
3340 nM | COc1cc(Nc2nc3ccccc3nc2NS(=O)(=O)c2cccnc2)cc(C(=O)N2CCN(C)CC2)c1 [Example 4, N-[3-({3-methoxy-5-[(4-methylpiperazin-1-yl)carbonyl]phenyl}amino)quinoxalin-2-yl]pyridine-3-sulfonamide]
3100 nM | COc1cc(Nc2nc3ccccc3nc2NS(=O)(=O)c2cccnc2)cc(C(=O)N2CCOCC2)c1 [Example 5, N-(3-{[3-methoxy-5-(morpholin-4-ylcarbonyl)phenyl]amino}quinoxalin-2-yl)pyridine-3-sulfonamide]
5620 nM | COc1cc(Nc2nc3ccccc3nc2NS(C)(=O)=O)cc(C(=O)N2CCOCC2)c1 [Example 6, N-(3-{[3-methoxy-5-(morpholin-4-ylcarbonyl)phenyl]amino}quinoxalin-2-yl)methanesulfonamide]
150 nM | COc1ccc(CC2CCOCC2)c(Nc2nc3ccccc3nc2NS(=O)(=O)c2ccc(F)cc2)c1 [Example 10, 4-fluoro-N-(3-{[5-methoxy-2-(tetrahydro-2H-pyran-4-ylmethyl)phenyl]amino}quinoxalin-2-yl)benzenesulfonamide]
45 nM | COc1ccc(CC2CCN(C)CC2)c(Nc2nc3ccccc3nc2NS(=O)(=O)c2cccnc2)c1 [Example 12, N-[3-({5-methoxy-2-[(1-methylpiperidin-4-yl)methyl]phenyl}amino)quinoxalin-2-yl]pyridine-3-sulfonamide]
420 nM | COc1ccc(CC2CC(C)(C)N(C)C(C)(C)C2)c(Nc2nc3ccccc3nc2NS(=O)(=O)c2cn(C)cn2)c1 [Example 14, N-[3-({5-methoxy-2-[(1,2,2,6,6-pentamethylpiperidin-4-yl)methyl]phenyl}amino)quinoxalin-2-yl]-1-methyl-1H-imidazole-4-sulfonamide]
170 nM | COc1ccc(CC2CCN(C(C)=O)CC2)c(Nc2nc3ccccc3nc2NS(C)(=O)=O)c1 [Example 18]
490 nM | COc1ccc(CC2CCCCC2)c(Nc2nc3ccccc3nc2NS(=O)(=O)c2cccnc2)c1 [Example 19, N-(3-{[2-(cyclohexylmethyl)-5-methoxyphenyl]amino}quinoxalin-2-yl)pyridine-3-sulfonamide]
450 nM | COc1ccc(CC2CCCCC2)c(Nc2nc3ccccc3nc2NS(=O)(=O)c2cn(C)cn2)c1 [Example 20, N-(3-{[2-(cyclohexylmethyl)-5-methoxyphenyl]amino}quinoxalin-2-yl)-1-methyl-1H-imidazole-4-sulfonamide]
18 nM | COc1ccc(CC2CCC(O)CC2)c(Nc2nc3ccccc3nc2NS(=O)(=O)c2cn(C)cn2)c1 (centres unmarked) [Example 22, N-[3-({2-[(4-hydroxycyclohexyl)methyl]-5-methoxyphenyl}amino)quinoxalin-2-yl]-1-methyl-1H-imidazole-4-sulfonamide]
180 nM | COc1ccc(CC2CCCC2)c(Nc2nc3ccccc3nc2NS(=O)(=O)c2cn(C)cn2)c1 [Example 24, N-(3-{[2-(cyclopentylmethyl)-5-methoxyphenyl]amino}quinoxalin-2-yl)-1-methyl-1H-imidazole-4-sulfonamide]
100 nM | COc1ccc(CC2CCSCC2)c(Nc2nc3ccccc3nc2NS(=O)(=O)c2cn(C)cn2)c1 [Example 25, N-(3-{[5-methoxy-2-(tetrahydro-2H-thiopyran-4-ylmethyl)phenyl]amino}quinoxalin-2-yl)-1-methyl-1H-imidazole-4-sulfonamide]
30 nM | COc1ccc(CC2CCS(=O)(=O)CC2)c(Nc2nc3ccccc3nc2NS(=O)(=O)c2cn(C)cn2)c1 [Example 26, N-[3-({2-[(1,1-dioxidotetrahydro-2H-thiopyran-4-yl)methyl]-5-methoxyphenyl}amino)auinoxalin-2-yl]-1-methyl-1H-imidazole-4-sulfonamide]
40 nM | COc1ccc(CCO)c(Nc2nc3ccccc3nc2NS(=O)(=O)c2cccnc2)c1 [Example 27, N-(3-{[2-(2-hydroxyethyl)-5-methoxyphenyl]amino}quinoxalin-2-yl)pyridine-3-sulfonamide]
21 nM | COc1ccc(CCCO)c(Nc2nc3ccccc3nc2NS(=O)(=O)c2cn(C)cn2)c1 [Example 28, N-(3-{[2-(3-Hydroxypropyl)-5-methoxyphenyl]amino}quinoxalin-2-yl)-1-methyl-1H-imidazole-4-sulfonamide]
550 nM | COc1ccc(C(CO)CO)c(Nc2nc3ccccc3nc2NS(=O)(=O)c2cn(C)cn2)c1 [Example 29, N-[3-({2-[2-Hydroxy-1-(hydroxymethyl)ethyl]-5-methoxyphenyl}amino)quinoxalin-2-yl]-1-methyl-1H-imidazole-4-sulfonamide]
200 nM | COc1ccc(C(C)C)c(Nc2nc3ccccc3nc2NS(=O)(=O)c2cn(C)cn2)c1 [Example 30, N-{3-[(2-Isopropyl-5-methoxyphenyl)amino]quinoxalin-2-yl}-1-methyl-1H-imidazole-4-sulfonamide]
11 nM | COc1ccc(CCCN(C)C)c(Nc2nc3ccccc3nc2NS(=O)(=O)c2cn(C)cn2)c1 [Example 31, N-[3-({2-[3-(Dimethylamino)propyl]-5-methoxyphenyl}amino)quinoxalin-2-yl]-1-methyl-1H-imidazole-4-sulfonamide]
250 nM | COc1ccc(CCO)c(Nc2nc3ccccc3nc2NS(=O)(=O)c2ccc(C(=O)N(C)C)cc2)c1 [Example 32, 4-{[(3-{[2-(2-Hydroxyethyl)-5-methoxyphenyl]amino}quinoxalin-2-yl)amino]sulfonyl}-N,N-dimethylbenzamide]
106 nM | COc1ccc(CCO)c(Nc2nc3ccccc3nc2NS(=O)(=O)c2ccc(C)[n+]([O-])c2)c1 [Example 33, N-(3-{[2-(2-Hydroxyethyl)-5-methoxyphenyl]amino}quinoxalin-2-yl)-6-methylpyridine-3-sulfonamide 1-oxide]
22 nM | COc1ccc(CCO)c(Nc2nc3ccccc3nc2NS(=O)(=O)c2ccc(C#N)cc2)c1 [Example 34]
48 nM | COc1ccc(CCO)c(Nc2nc3ccccc3nc2NS(=O)(=O)c2cn(C)cn2)c1 [Example 35, N-(3-{[2-(2-Hydroxyethyl)-5-methoxyphenyl]amino}quinoxalin-2-yl)-1-methyl-1H-imidazole-4-sulfonamide]
23 nM | COc1ccc(CCO)c(Nc2nc3ccccc3nc2NS(=O)(=O)c2ccc(F)cc2)c1 [Example 36, 4-Fluoro-N-(3-{[2-(2-hydroxyethyl)-5-methoxyphenyl]amino}quinoxalin-2-yl)benzenesulfonamide]

Structure (SMILES) | IC50
COc1ccc(CC2C[C@H]3CC[C@@H](C2)N3C)c(Nc2nc3ccccc3nc2NS(=O)(=O)c2cn(C)cn2)c1 (stereo partly drawn) [Example 15, N-{3-[(5-methoxy-2-{[(1R,5S)-8-methyl-8-azabicyclo[3.2.1]oct-3-yl]methyl}phenyl)amino]quinoxalin-2-yl}-1-methyl-1H-imidazole-4-sulfonamide] | 110 nM

Same assay, conditions: at 20 μM

Structure (SMILES) | PI3K inhibition at single concentration
COc1ccc(CC2CCCCC2)c(Nc2nc3ccccc3nc2NS(C)(=O)=O)c1 [Example 21, N-(3-{[2-(cyclohexylmethyl)-5-methoxyphenyl]amino}quinoxalin-2-yl)methanesulfonamide] | 68% at 20 μM
